Starred links: 1 amine or outer side, 2 acyl side, 3 side chain; linkers in the order of their positions; H or OH if unused. Positions of bridges follow the written chain, without caps; N, C: chain ends. Non-standard residues stand in square brackets, D forms with d. Residues, ends and D or L forms follow the SMILES beside them. Groups on a side chain read outwards from the residue. *: point of attachment. Trp(1-CH2COOH) = N[C@@H](Cc1cn(CC(=O)O)c2ccccc12)C(=O)O; X23 = COc1cc(NC(=S)*)ccc1-n1cnc(Cl)c1; X63 = COc1cc([N+](=O)[O-])ccc1NC(=S)*; X8 = NC(=O)c1c[nH]c2c(NC(=S)*)cccc12; X38 = N#Cc1c[nH]c2c(NC(=S)*)cccc12; X49 = N#Cc1ccccc1NC(=N)c1ccccc1N*; X50 = COc1cc(NC(=S)*)ccc1-c1cnco1; Hyp = O=C(O)[C@@H]1C[C@@H](O)CN1; X33 = Cc1cc2ccc(NC(=S)*)cc2[nH]1; X43 = S=C(Nc1ccccc1Oc1ccccc1)*; X96 = Fc1cc(F)c(NC(=S)*)c(F)c1; X42 = S=C(Nc1ccc2nccnc2c1Br)*; NMeNle = CCCC[C@H](NC)C(=O)O; NMeA = CN[C@@H](C)C(=O)O; Dab = NCC[C@H](N)C(=O)O; X45 = c1ccc2sc(N*)cc2c1; Dap = NC[C@H](N)C(=O)O; X77 = Clc1cccc(N*)c1Cl; CO = O=C([*:1])[*:2]; NHPh = c1ccc(N*)cc1
Target: T1, PD-1/PD-L1 (Homo sapiens, UniProt Q9NZQ7)
T1 construct: TVMV protease site linker (C); made in house; host or cells: HEK293T cells
T1 sequence (Q9NZQ7 18-239): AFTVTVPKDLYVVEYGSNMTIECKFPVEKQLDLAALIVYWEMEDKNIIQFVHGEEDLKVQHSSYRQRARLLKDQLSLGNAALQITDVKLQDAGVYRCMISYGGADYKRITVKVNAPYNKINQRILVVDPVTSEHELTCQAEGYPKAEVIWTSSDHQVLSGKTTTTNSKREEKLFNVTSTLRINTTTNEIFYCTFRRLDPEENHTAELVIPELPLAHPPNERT
Assay: PD-1/PD-L1 Homogenous Time-Resolved Fluorescence (HTRF) binding assay
Conditions: not given
Method in brief: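 Compounds preincubated 15 min with PD-L1-His (10 nM final), then PD-1-Ig (20 nM final) added for 15 min in dPBS with 0.1% BSA, 0.05% Tween-20. Detection by Eu-cryptate anti-Ig (1 nM) and APC anti-His (20 nM) HTRF.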

**Q.** With `CCCC[C@H]1C(=O)N(C)[C@@H](CCCC)C(=O)N[C@@H](CC(C)C)C(=O)N[C@H](C(=O)NCC(N)=O)CSCC(=O)N[C@@H](Cc2ccc(O)cc2)C(=O)N(C)[C@@H](C)C(=O)N[C@@H](CC(N)=O)C(=O)N2CCC[C@H]2C(=O)N[C@@H](CNC(=O)Nc2cccc(Cl)c2Cl)C(=O)N[C@@H](CC(C)C)C(=O)N2C[C@H](O)C[C@H]2C(=O)N[C@@H](Cc2c[nH]c3ccccc23)C(=O)N[C@@H](CCN)C(=O)N[C@@H](Cc2cn(CC(=O)O)c3ccccc23)C(=O)N1C` [Example 1071] ({CH2CO}-Y[NMeA]NP[Dap]([CO-X77])L[Hyp]W[Dab][Trp(1-CH2COOH)][NMeNle][NMeNle]LCG-NH2; thioether N-14) as the compound, how does the IC50 read?
**A.** Its IC50 is 2.3 nM.

Same assay, conditions: PD-L1-His 10 nM pre-incubated with inhibitor, PD-1-Ig 20 nM; read-out: HTRF IC50

**Q.** `CCCC[C@H]1C(=O)N(C)[C@@H](CCCC)C(=O)N[C@@H](CC(C)C)C(=O)N[C@H](C(=O)NCC(N)=O)CSCC(=O)N[C@@H](Cc2ccc(O)cc2)C(=O)N(C)[C@@H](C)C(=O)N[C@@H](CC(N)=O)C(=O)N2CCC[C@H]2C(=O)N[C@@H](CNC(=S)Nc2ccc(-n3cnc(Cl)c3)c(OC)c2)C(=O)N[C@@H](CC(C)C)C(=O)N2C[C@H](O)C[C@H]2C(=O)N[C@@H](Cc2c[nH]c3ccccc23)C(=O)N[C@@H](CCNC(=S)Nc2ccc(-n3cnc(Cl)c3)c(OC)c2)C(=O)N[C@@H](Cc2cn(CC(=O)O)c3ccccc23)C(=O)N1C` [Example 1091] ({CH2CO}-Y[NMeA]NP[Dap](X23)L[Hyp]W[Dab](X23)[Trp(1-CH2COOH)][NMeNle][NMeNle]LCG-NH2; thioether N-14) was tested. Which IC50 did it give?
**A.** The IC50 was 4.3 nM.

**Q.** For `CCCC[C@H]1C(=O)N(C)[C@@H](CCCC)C(=O)N[C@@H](CC(C)C)C(=O)N[C@H](C(=O)NCC(N)=O)CSCC(=O)N[C@@H](Cc2ccc(O)cc2)C(=O)N(C)[C@@H](C)C(=O)N[C@@H](CC(N)=O)C(=O)N2CCC[C@H]2C(=O)N[C@@H](CNC(=S)Nc2ccc(-c3cnco3)c(OC)c2)C(=O)N[C@@H](CC(C)C)C(=O)N2C[C@H](O)C[C@H]2C(=O)N[C@@H](Cc2c[nH]c3ccccc23)C(=O)N[C@@H](CCNC(=S)Nc2ccc(-c3cnco3)c(OC)c2)C(=O)N[C@@H](Cc2cn(CC(=O)O)c3ccccc23)C(=O)N1C` [Example 1029] ({CH2CO}-Y[NMeA]NP[Dap](X50)L[Hyp]W[Dab](X50)[Trp(1-CH2COOH)][NMeNle][NMeNle]LCG-NH2; thioether N-14), which IC50 is on record?
**A.** The IC50 was 3.1 nM.

**Q.** For `CCCC[C@H]1C(=O)N(C)[C@@H](CCCC)C(=O)N[C@@H](CC(C)C)C(=O)N[C@H](C(=O)NCC(N)=O)CSCC(=O)N[C@@H](Cc2ccc(O)cc2)C(=O)N(C)[C@@H](C)C(=O)N[C@@H](CC(N)=O)C(=O)N2CCC[C@H]2C(=O)N[C@@H](CNC(=S)Nc2ccc3nccnc3c2Br)C(=O)N[C@@H](CC(C)C)C(=O)N2C[C@H](O)C[C@H]2C(=O)N[C@@H](Cc2c[nH]c3ccccc23)C(=O)N[C@@H](CCNC(=S)Nc2ccc3nccnc3c2Br)C(=O)N[C@@H](Cc2cn(CC(=O)O)c3ccccc23)C(=O)N1C` [Example 3070] ({CH2CO}-Y[NMeA]NP[Dap](X42)L[Hyp]W[Dab](X42)[Trp(1-CH2COOH)][NMeNle][NMeNle]LCG-NH2; thioether N-14), which IC50 is on record?
**A.** The IC50 was 5.9 nM.

**Q.** Which IC50 does the source give for `CCCC[C@H]1C(=O)N(C)[C@@H](CCCC)C(=O)N[C@@H](CC(C)C)C(=O)N[C@H](C(=O)NCC(N)=O)CSCC(=O)N[C@@H](Cc2ccc(O)cc2)C(=O)N(C)[C@@H](C)C(=O)N[C@@H](CC(N)=O)C(=O)N2CCC[C@H]2C(=O)N[C@@H](CNC(=S)Nc2cccc3c(C(N)=O)c[nH]c23)C(=O)N[C@@H](CC(C)C)C(=O)N2C[C@H](O)C[C@H]2C(=O)N[C@@H](Cc2c[nH]c3ccccc23)C(=O)N[C@@H](CCNC(=S)Nc2cccc3c(C(N)=O)c[nH]c23)C(=O)N[C@@H](Cc2cn(CC(=O)O)c3ccccc23)C(=O)N1C` [Example 3023] ({CH2CO}-Y[NMeA]NP[Dap](X8)L[Hyp]W[Dab](X8)[Trp(1-CH2COOH)][NMeNle][NMeNle]LCG-NH2; thioether N-14) here?
**A.** The IC50 was 1.6 nM.

**Q.** How did the IC50 turn out when `CCCC[C@H]1C(=O)N(C)[C@@H](CCCC)C(=O)N[C@@H](CC(C)C)C(=O)N[C@H](C(=O)NCC(N)=O)CSCC(=O)N[C@@H](Cc2ccc(O)cc2)C(=O)N(C)[C@@H](C)C(=O)N[C@@H](CC(N)=O)C(=O)N2CCC[C@H]2C(=O)N[C@@H](CN)C(=O)N[C@@H](CC(C)C)C(=O)N2C[C@H](O)C[C@H]2C(=O)N[C@@H](Cc2c[nH]c3ccccc23)C(=O)N[C@@H](CCNC(=O)Nc2cc3ccccc3s2)C(=O)N[C@@H](Cc2cn(CC(=O)O)c3ccccc23)C(=O)N1C` [Example 3061] ({CH2CO}-Y[NMeA]NP[Dap]L[Hyp]W[Dab]([CO-X45])[Trp(1-CH2COOH)][NMeNle][NMeNle]LCG-NH2; thioether N-14) was run?
**A.** Its IC50 is 5.6 nM.

**Q.** `CCCC[C@H]1C(=O)N(C)[C@@H](CCCC)C(=O)N[C@@H](CC(C)C)C(=O)N[C@H](C(=O)NCC(N)=O)CSCC(=O)N[C@@H](Cc2ccc(O)cc2)C(=O)N(C)[C@@H](C)C(=O)N[C@@H](CC(N)=O)C(=O)N2CCC[C@H]2C(=O)N[C@@H](CNC(=O)Nc2ccccc2)C(=O)N[C@@H](CC(C)C)C(=O)N2C[C@H](O)C[C@H]2C(=O)N[C@@H](Cc2c[nH]c3ccccc23)C(=O)N[C@@H](CCNC(=O)Nc2ccccc2)C(=O)N[C@@H](Cc2cn(CC(=O)O)c3ccccc23)C(=O)N1C` [Example 1009] ({CH2CO}-Y[NMeA]NP[Dap]([CO-NHPh])L[Hyp]W[Dab]([CO-NHPh])[Trp(1-CH2COOH)][NMeNle][NMeNle]LCG-NH2; thioether N-14) was tested. Which IC50 did it give?
**A.** Its IC50 is 6.5 nM.

**Q.** With `CCCC[C@H]1C(=O)N(C)[C@@H](CCCC)C(=O)N[C@@H](CC(C)C)C(=O)N[C@H](C(=O)NCC(N)=O)CSCC(=O)N[C@@H](Cc2ccc(O)cc2)C(=O)N(C)[C@@H](C)C(=O)N[C@@H](CC(N)=O)C(=O)N2CCC[C@H]2C(=O)N[C@@H](CNC(=S)Nc2ccccc2Oc2ccccc2)C(=O)N[C@@H](CC(C)C)C(=O)N2C[C@H](O)C[C@H]2C(=O)N[C@@H](Cc2c[nH]c3ccccc23)C(=O)N[C@@H](CCNC(=S)Nc2ccccc2Oc2ccccc2)C(=O)N[C@@H](Cc2cn(CC(=O)O)c3ccccc23)C(=O)N1C` [Example 1129] ({CH2CO}-Y[NMeA]NP[Dap](X43)L[Hyp]W[Dab](X43)[Trp(1-CH2COOH)][NMeNle][NMeNle]LCG-NH2; thioether N-14) as the compound, how does the IC50 read?
**A.** Its IC50 is 9.4 nM.

**Q.** With `CCCC[C@H]1C(=O)N(C)[C@@H](CCCC)C(=O)N[C@@H](CC(C)C)C(=O)N[C@H](C(=O)NCC(N)=O)CSCC(=O)N[C@@H](Cc2ccc(O)cc2)C(=O)N(C)[C@@H](C)C(=O)N[C@@H](CC(N)=O)C(=O)N2CCC[C@H]2C(=O)N[C@@H](CNC(=S)Nc2cccc3c(C#N)c[nH]c23)C(=O)N[C@@H](CC(C)C)C(=O)N2C[C@H](O)C[C@H]2C(=O)N[C@@H](Cc2c[nH]c3ccccc23)C(=O)N[C@@H](CCN)C(=O)N[C@@H](Cc2cn(CC(=O)O)c3ccccc23)C(=O)N1C` [Example 3067] ({CH2CO}-Y[NMeA]NP[Dap](X38)L[Hyp]W[Dab][Trp(1-CH2COOH)][NMeNle][NMeNle]LCG-NH2; thioether N-14) as the compound, how does the IC50 read?
**A.** Its IC50 is 5.2 nM.

**Q.** How did the IC50 turn out when `CCCC[C@H]1C(=O)N(C)[C@@H](CCCC)C(=O)N[C@@H](CC(C)C)C(=O)N[C@H](C(=O)NCC(N)=O)CSCC(=O)N[C@@H](Cc2ccc(O)cc2)C(=O)N(C)[C@@H](C)C(=O)N[C@@H](CC(N)=O)C(=O)N2CCC[C@H]2C(=O)N[C@@H](CNC(=O)Nc2ccccc2C(=N)Nc2ccccc2C#N)C(=O)N[C@@H](CC(C)C)C(=O)N2C[C@H](O)C[C@H]2C(=O)N[C@@H](Cc2c[nH]c3ccccc23)C(=O)N[C@@H](CCN)C(=O)N[C@@H](Cc2cn(CC(=O)O)c3ccccc23)C(=O)N1C` [Example 1097] ({CH2CO}-Y[NMeA]NP[Dap]([CO-X49])L[Hyp]W[Dab][Trp(1-CH2COOH)][NMeNle][NMeNle]LCG-NH2; thioether N-14) was run?
**A.** The IC50 was 5.7 nM.

**Q.** Which IC50 does the source give for `CCCC[C@H]1C(=O)N(C)[C@@H](CCCC)C(=O)N[C@@H](CC(C)C)C(=O)N[C@H](C(=O)NCC(N)=O)CSCC(=O)N[C@@H](Cc2ccc(O)cc2)C(=O)N(C)[C@@H](C)C(=O)N[C@@H](CC(N)=O)C(=O)N2CCC[C@H]2C(=O)N[C@@H](CNC(=S)Nc2ccc([N+](=O)[O-])cc2OC)C(=O)N[C@@H](CC(C)C)C(=O)N2C[C@H](O)C[C@H]2C(=O)N[C@@H](Cc2c[nH]c3ccccc23)C(=O)N[C@@H](CCN)C(=O)N[C@@H](Cc2cn(CC(=O)O)c3ccccc23)C(=O)N1C` [Example 1112] ({CH2CO}-Y[NMeA]NP[Dap](X63)L[Hyp]W[Dab][Trp(1-CH2COOH)][NMeNle][NMeNle]LCG-NH2; thioether N-14) here?
**A.** Its IC50 is 1.2 nM.

**Q.** `CCCC[C@H]1C(=O)N(C)[C@@H](CCCC)C(=O)N[C@@H](CC(C)C)C(=O)N[C@H](C(=O)NCC(N)=O)CSCC(=O)N[C@@H](Cc2ccc(O)cc2)C(=O)N(C)[C@@H](C)C(=O)N[C@@H](CC(N)=O)C(=O)N2CCC[C@H]2C(=O)N[C@@H](CNC(=S)Nc2ccc3cc(C)[nH]c3c2)C(=O)N[C@@H](CC(C)C)C(=O)N2C[C@H](O)C[C@H]2C(=O)N[C@@H](Cc2c[nH]c3ccccc23)C(=O)N[C@@H](CCN)C(=O)N[C@@H](Cc2cn(CC(=O)O)c3ccccc23)C(=O)N1C` [Example 3048] ({CH2CO}-Y[NMeA]NP[Dap](X33)L[Hyp]W[Dab][Trp(1-CH2COOH)][NMeNle][NMeNle]LCG-NH2; thioether N-14) was tested. Which IC50 did it give?
**A.** The IC50 was 3 nM.

**Q.** With `CCCC[C@H]1C(=O)N(C)[C@@H](CCCC)C(=O)N[C@@H](CC(C)C)C(=O)N[C@H](C(=O)NCC(N)=O)CSCC(=O)N[C@@H](Cc2ccc(O)cc2)C(=O)N(C)[C@@H](C)C(=O)N[C@@H](CC(N)=O)C(=O)N2CCC[C@H]2C(=O)N[C@@H](CNC(=S)Nc2c(F)cc(F)cc2F)C(=O)N[C@@H](CC(C)C)C(=O)N2C[C@H](O)C[C@H]2C(=O)N[C@@H](Cc2c[nH]c3ccccc23)C(=O)N[C@@H](CCNC(=S)Nc2c(F)cc(F)cc2F)C(=O)N[C@@H](Cc2cn(CC(=O)O)c3ccccc23)C(=O)N1C` [Example 1044] ({CH2CO}-Y[NMeA]NP[Dap](X96)L[Hyp]W[Dab](X96)[Trp(1-CH2COOH)][NMeNle][NMeNle]LCG-NH2; thioether N-14) as the compound, how does the IC50 read?
**A.** The IC50 was 3.3 nM.

Reference: patent publication US20220389061A1, “IMMUNOMODULATORS” (priority 2019, published 2022)
